Entries after “also recorded” stand apart in the source; their conditions may differ.
Columns and labels:
HaloTag® protein [1] = assay: Binding efficiency to HaloTag protein in cells (chase with fluorescent HaloTag ligand, SDS-PAGE); assay type: cell-based; conditions: 10 μM
Method: b) Binding efficiency to HaloTag® protein in cells was measured by adding the methotrexate-chloroalkane conjugates to cells expressing a HaloTag® protein to a final concentration of 10 μM. Following 0-120 mins of binding, the reactions were chased with 5 μM fluorescent HaloTag® ligand. Unbound HaloTag® protein was detected through binding to the fluorescent HaloTag® ligand followed by cell lysis, analysis on a SDS-PAGE gel and detection on a fluorescent gel scanner.
b) Binding efficiency to HaloTag® protein in cells was measured by adding the dexamethasone-chloroalkane conjugates to cells expressing a HaloTag® protein to a final concentration of 10 μM. Following 0-60 mins of binding, the reaction was chased with 5 μM fluorescent HaloTag ligand. Unbound HaloTag® protein was detected through binding to the fluorescent HaloTag® ligand followed by cell lysis, analysis on SDS-PAGE gel and detection on a fluorescent gel scanner.

HaloTag® protein [2] = assay: Binding efficiency to HaloTag protein in lysate (chase with fluorescent HaloTag ligand, SDS-PAGE); conditions: 1 μM, 0-60 min binding; for labeling kinetics / binding efficiency to HaloTag protein in lysate: methotrexate-chloroalkane conjugates, FIG. 3A
Method: a) Binding efficiency to HaloTag® protein in lysate was measured by adding the methotrexate-chloroalkane conjugates to lysate from cells expressing a HaloTag® protein to a final concentration of 1 μM. Following 0-60 mins of binding, the reactions were chased with 1 μM fluorescent HaloTag® ligand. Unbound HaloTag® protein was detected through binding to the fluorescent HaloTag® ligand followed by analysis on SDS-PAGE gel and detection on a fluorescent gel scanner.
a) Binding efficiency to HaloTag® protein in lysate was measured by adding the dexamethasone-chloroalkane conjugates to lysate from cells expressing a HaloTag® protein to a final concentration of 1 μM. Following 0-60 mins of binding, the reactions were chased with 1 μM fluorescent HaloTag® ligand. Unbound HaloTag® protein was detected through binding to the fluorescent HaloTag ligand followed by analysis on SDS-PAGE gel and detection on a fluorescent gel scanner.

[3] = target: T1, glucocorticoid receptor (GR) (Homo sapiens, UniProt P04150); assay: Glucocorticoid receptor competitor assay (fluorescence polarization); assay type: binding; conditions: dexamethasone-chloroalkane conjugates; FIG. 7
T1 construct: purchased Life Technology
T1 sequence (P04150 1-777): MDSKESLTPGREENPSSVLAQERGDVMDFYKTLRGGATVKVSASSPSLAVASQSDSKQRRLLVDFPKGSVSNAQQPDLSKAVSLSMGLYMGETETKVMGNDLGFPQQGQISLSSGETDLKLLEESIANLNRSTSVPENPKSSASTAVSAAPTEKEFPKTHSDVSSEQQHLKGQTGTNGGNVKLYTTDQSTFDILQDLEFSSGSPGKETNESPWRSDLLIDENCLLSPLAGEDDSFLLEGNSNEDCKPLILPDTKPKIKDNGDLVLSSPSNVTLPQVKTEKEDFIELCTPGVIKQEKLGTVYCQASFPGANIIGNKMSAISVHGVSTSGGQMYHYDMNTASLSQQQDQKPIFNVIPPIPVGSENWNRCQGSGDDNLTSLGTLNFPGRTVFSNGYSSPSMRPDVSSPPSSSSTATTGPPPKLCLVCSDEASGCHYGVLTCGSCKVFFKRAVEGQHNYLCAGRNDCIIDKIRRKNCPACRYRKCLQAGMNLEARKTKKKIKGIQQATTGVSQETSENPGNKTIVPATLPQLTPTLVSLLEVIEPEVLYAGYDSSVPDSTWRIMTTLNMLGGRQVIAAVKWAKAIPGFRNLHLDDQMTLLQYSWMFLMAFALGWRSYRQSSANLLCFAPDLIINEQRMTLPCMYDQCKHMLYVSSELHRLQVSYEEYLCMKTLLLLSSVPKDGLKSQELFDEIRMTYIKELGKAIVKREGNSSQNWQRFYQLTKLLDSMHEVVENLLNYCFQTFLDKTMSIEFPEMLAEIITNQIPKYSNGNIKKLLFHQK
Description: c) Binding efficiency to the target glucocorticoid receptor (GR) was done using the glucocorticoid receptor competitor assay (Life Technology) as recommended by the manufacturer.

NanoLuc:GR fusion = target: T2, NanoLuc:GR fusion (Homo sapiens, UniProt P04150); assay: Pull-down of NanoLuc:GR fusion from live cells onto HaloTag protein beads; assay type: cell-based; conditions: HEK293 cells, 10 μM conjugate, 2 h binding, 45 min capture, release with 150 μM Dexamethasone; FIG. 8
T2 construct: expressed in transfected cells; host or cells: HEK293
T2 sequence (P04150 1-777): T1 sequence (P04150 1-777)
Method: HEK293 cells were plated and transfected using PEI with plasmid DNA encoding NanoLuc:GR fusion in wells of a 96-well plate. The DNA was diluted 1:50 with a promoterless carrier DNA plasmid (pCI neo) to a final concentration of 80 ng total DNA per well. Twenty-four hours post-transfection, cells were serum starved for additional 24 hours then incubated with a final concentration of 10 μM PBI-4980 or PBI-4025 while control cells were not treated with the conjugated drug. […] The released NanoLuc:GR (+PBI-4980 or +PBI-4025) and control samples were detected by using the NanoGlo® assay reagent (Promega Corp).

[4] = target: T3, NanoLuc-DHFR fusion protein (Homo sapiens, UniProt P00374); assay: Pull-down of NanoLuc-DHFR fusion from living cells onto HALOTAG protein beads; assay type: cell-based; conditions: HEK293 cells, 10 uM conjugate, 2 h binding, 45 min capture, release with 150 μM methotrexate; FIG. 4
T3 construct: expressed in transfected cells; host or cells: HEK293
T3 sequence (P00374 1-187): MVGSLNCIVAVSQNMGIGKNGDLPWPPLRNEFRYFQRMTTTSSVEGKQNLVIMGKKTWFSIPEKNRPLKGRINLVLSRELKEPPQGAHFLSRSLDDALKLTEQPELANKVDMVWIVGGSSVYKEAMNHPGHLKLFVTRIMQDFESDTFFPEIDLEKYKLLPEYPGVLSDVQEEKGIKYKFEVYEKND
Method: HEK293 cells were plated and transfected using PEI with plasmid DNA encoding a NANOLUC-DHFR fusion in wells of a 96-well plate. The DNA was diluted 1:50 with a promoterless carrier DNA plasmid (pCI) to a final concentration of 80 ng total DNA per well. Twenty-four hours post-transfection, cells were serum starved for additional 24 hours and then treated with […] 10 uM PBI-4848 or PBI-5015 while control cells were not treated with the conjugated drug. Following equilibration binding of 2 h, the media was removed, and the cells quickly washed with PBS and lysed in detergent-based lysis buffer for 10 min. Cell lysates were then transferred to wells of a 96-well plate containing 0.5 μl settled paramagnetic HALOTAG protein beads and incubated with shaking for 45 min. Following binding, the unbound fraction was removed, the HALOTAG protein paramagnetic beads washed, 150 μM unconjugated methotrexate added, and the captured NANOLUC:DHFR specifically released from the beads by competition with the unconjugated methotrexate for 60 min. The released NANOLUC:DHFR (+PBI-5015 or +PBI-4848) and control samples were detected by NANOGLO luciferase detection reagent.

[5] = methotrexate-chloroalkane conjugates, 0-120 min binding, FIG. 3B

| SMILES | cell permeability/binding efficiency to HaloTag protein in cells (HaloTag® protein [1]; dexamethasone-chloroalkane conjugates, 0-60 min binding, FIG. 6B) | binding kinetics to HaloTag protein in lysate (HaloTag® protein [2]; dexamethasone-chloroalkane conjugates, FIG. 6A) | affinity / binding efficiency to glucocorticoid receptor [3] | efficiency of Nluc:GR fusion pull down from live cells (NanoLuc:GR fusion) | cell permeability/binding efficiency to HaloTag protein in cells (HaloTag® protein [1]; [5]) | labeling kinetics / binding efficiency to HaloTag protein in lysate (HaloTag® protein [2]) | pull-down of Nluc:DHFR fusion from living cells [4] |
| --- | --- | --- | --- | --- | --- | --- | --- |
| C[C@@H]1CC2[C@@H]3CCC4=CC(=O)C=C[C@]4(C)[C@@]3(F)[C@@H](O)C[C@]2(C)[C@@]1(O)C(=O)NCCCCCNC(=O)OCCOCCOCCOC(=O)NCCOCCOCCCCCCCl (some centres unmarked) [PBI-4980, Dexamethasone Carbamate Chloroalkane] | best cell permeability/binding efficiency | faster binding kinetics | best binding efficiency | significantly higher than via PBI-4025 |  |  |  |
| CN(Cc1cnc2nc(N)nc(N)c2n1)c1ccc(C(=O)NC(CCC(=O)NCCOCCOCCCCCCCl)C(=O)O)cc1 (centres unmarked) [PBI-4848] |  |  |  |  | best cell permeability/binding efficiency; also recorded: higher cell permeability | fast labeling kinetics | only PBI-5015 efficiently pulled down |
| C[C@@H]1CC2C3CCC4=CC(=O)C=C[C@]4(C)[C@@]3(F)[C@@H](O)C[C@]2(C)[C@@]1(O)C(=O)NCCOCCOCCOCCOCCC(=O)NCCOCCOCCCCCCCl (some centres unmarked) [PBI-4025] |  |  | highest affinity; also recorded: best binding efficiency; also recorded: higher affinity |  |  |  |  |
| CN(Cc1cnc2nc(N)nc(N)c2n1)c1ccc(C(=O)NC(CCC(=O)NCCCCCNC(=O)OCCOCCOCCOC(=O)NCCOCCOCCCCCCCl)C(=O)O)cc1 (centres unmarked) [PBI-5015] |  |  |  |  | good cell permeability and binding efficiency | fast labeling kinetics | efficiently pulled down |
